Test results reported in publication PMC11696576, “Next generation thiazolyl ketone inhibitors of cytosolic phospholipase A2 α for targeted cancer therapy” (Nature Communications, 2025).
Where “and” joins values, the source holds several entries; their conditions need not be identical. Equal values may be shown once. Read-outs that look alike come from different tables or passages of the source.

Tests used:
recombinant human cPLA2α = target: T1, recombinant human cPLA2α (Homo sapiens, UniProt P47712); test: radioactivity-based mixed micelle assay, cPLA2α; format: biochemical; conditions: for cPLA2 % inhibition at 0.091 mole fraction, average: average of triplicates; for cPLA2α XI(50): XI(50) ± stdev, mole fraction of inhibitor in total substrate interface for 50% inhibition
T1 sequence (P47712 1-749): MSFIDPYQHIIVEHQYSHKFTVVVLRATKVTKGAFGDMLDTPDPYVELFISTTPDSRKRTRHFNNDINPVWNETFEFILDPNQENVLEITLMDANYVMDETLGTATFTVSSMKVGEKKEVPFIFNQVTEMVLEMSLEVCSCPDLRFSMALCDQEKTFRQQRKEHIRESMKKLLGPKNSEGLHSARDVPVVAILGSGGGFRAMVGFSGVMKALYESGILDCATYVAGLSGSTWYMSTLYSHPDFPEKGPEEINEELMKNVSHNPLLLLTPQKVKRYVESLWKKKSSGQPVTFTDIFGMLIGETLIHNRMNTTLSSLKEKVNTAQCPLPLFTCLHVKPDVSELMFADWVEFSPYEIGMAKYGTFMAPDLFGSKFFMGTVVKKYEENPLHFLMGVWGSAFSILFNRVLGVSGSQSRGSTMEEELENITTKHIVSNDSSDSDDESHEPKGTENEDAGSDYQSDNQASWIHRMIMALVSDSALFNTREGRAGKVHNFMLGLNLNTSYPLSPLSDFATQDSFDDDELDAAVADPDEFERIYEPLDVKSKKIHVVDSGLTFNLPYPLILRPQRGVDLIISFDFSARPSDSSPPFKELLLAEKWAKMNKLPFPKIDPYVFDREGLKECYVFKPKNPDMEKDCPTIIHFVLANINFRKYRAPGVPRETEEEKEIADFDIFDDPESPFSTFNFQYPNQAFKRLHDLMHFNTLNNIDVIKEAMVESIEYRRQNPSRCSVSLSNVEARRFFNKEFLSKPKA
Description: (§1) All synthesized thiazolyl ketones were tested for their in vitro inhibitory activity on recombinant human cPLA2α and selectivity over human calcium-independent GVIA iPLA2 and secreted GV sPLA2 using our previously described group-specific radioactivity-based mixed micelle assays. The inhibition results are presented either as per cent inhibition or as XI(50) values in Table 1. […] The XI(50) is defined as the mole fraction of the inhibitor in the total substrate interface required to inhibit the enzyme activity by 50%. For comparison purposes, previously published data for the inhibitor GK470[19] are included. […] Inhibitors were initially screened at 0.091 mol fraction (5 μL of 5 mM inhibitor in DMSO) in substrate (495 μL) in technical triplicates. […] The XI(50) value and stdev values reported are for the entire curve. This analysis was performed in GraphPad Prism v6.

secreted GV sPLA2 = target: T2, secreted GV sPLA2 (Homo sapiens, UniProt P39877); test: radioactivity-based mixed micelle assay, GV sPLA2; format: biochemical
T2 sequence (P39877 21-138): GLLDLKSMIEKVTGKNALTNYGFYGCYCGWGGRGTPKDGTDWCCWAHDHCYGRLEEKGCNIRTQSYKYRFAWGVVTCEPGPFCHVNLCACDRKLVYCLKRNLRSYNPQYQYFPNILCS
Description: as §1

[1] = stability in human plasma (LC-MS/MS); format: in vitro ADME; conditions: for Stability in human plasma 4 h: % of the compound remaining after 4 h; for plasma stability 4h (%) / plasma stability 25h (%) / plasma stability 20h (%): individual sample, human plasma
Description: The stability of the analogs in human plasma was studied over approximately 24 h by LC-MS/MS and the results at 4 h and the final timepoint (20–25 h) are included in Table 1.
The metabolic stability of the compounds was determined through in vitro stability assays in human plasma. Solutions of compounds in DMSO (20 mM) were diluted to 5 μg/mL in 50% methanol for infusion into the MS/MS system and spiking of calibration standards and control samples. For the MS detection, positive ionization in ESI mode was used. Good sensitivity, retention and peak shaped were achieved using a gradient with 5 mM ammonium carbamate in water and ammonium carbamate in 90% acetonitrile on a reversed phase column (ACE3AQ). Calibration standards were spiked in a calibration range of 0.5–100 ng/ml. Control samples were spiked at, low, medium, and high concentration levels. The spiked plasma samples were prepared by protein precipitation using acetonitrile containing appropriate internal standard (IS). […] Samples were prepared for analysis by taking 50 μL of plasma sample and adding 100 μL of IS working solution in acetonitrile followed by vortexing at 2500 rpm (Multi-tube vortexer DVX-2500, Henry Troemner LLC, USA) for 2 min. The samples were centrifuged at 5300 rpm (Heraeus Megafuge 1.0 Heraeus, Germany) for 3 min and the supernatant transferred to the autosampler. Recovery was determined by comparing the prepared matrix samples (protein precipitation) with a direct sample (analytes spikes in 67% acetonitrile = injection solution) such that the recovery of the sample preparation and the matrix effects were determined together. Two or three samples were each measured in technical triplicates to give the final % recovery.

SW982 synoviocytes = test: cellular arachidonic acid (AA) release assay, IL-1β stimulated; format: cell-based, human; conditions: for inhibition at 1 µM / inhibition at 5 µM / EC50 / IC50: Homo sapiens; for inhibition at 5 µM: SW982, 5 µM; for EC50 / IC50: SW982; for IC50: concentration in µM, read-out: logEC50 best-fit value, AA release (converted)
From the text: To test the inhibitory activity of the compounds in cells, we measured their effect on the release of AA from synoviocytes stimulated with IL-1β (Table 2). […] Combined with favorable selectivity and stability it was thus chosen for further evaluation. We looked specifically at how it modulated eicosanoid levels in response to stimulation both in whole blood and in isolated peripheral blood mononuclear cells (PBMCs) and checked for off-target effects on AA metabolism in whole blood by also measuring the effect of GK420 on eicosanoid release in the presence of exogenous free AA.
The human synovial sarcoma cell line SW982 (ATCC, London, UK) was used to measure AA release. The cells were maintained in Dulbecco’s Modified Eagle Medium (DMEM) supplemented with 10% FBS, 0.1 mg/mL gentamicin, and 0.3 mg/mL L-glutamine at 37 °C with 10% CO2, and experiments were performed at 3 days post-confluence. To measure AA release, the cells were labeled overnight with ^3H-AA (0.4 μCi/mL) in serum-free DMEM and then washed twice with PBS containing fBSA (2 mg/mL) to remove unincorporated radioactivity. The inhibitors, or DMSO vehicle control, were subsequently added to the cells for 1 hour prior to stimulation with 10 ng/mL IL-1β for 4 h. Supernatants were collected and centrifuged at 300 × g for 5 min to clear them of detached cells and adherent cells were dissolved in 1 N NaOH. The ^3H-AA was assessed by liquid scintillation counting (LS 6500 Multi-Purpose Scintillation Counter, Beckman Coulter, Inc., USA) and the results are given as the inhibition of released ^3H-AA in the supernatants relative to total ^3H-AA incorporated into the cells, as described. EC50 values were calculated by fitting the % inhibition data to a three-parameter dose-response curve in GraphPad prism v10.4.0. Experiments were performed in technical triplicates and repeated at least three times.

[2] = 0.091 mole fraction, read-out: cPLA2α % Inhib
[3] = individual technical replicate, read-out: cPLA2 % inhibition at 0.091 mole fraction
[4] = 0.091 mole fraction, read-out: GV sPLA2 % Inhib
[5] = average of triplicates, read-out: sPLA2 % inhibition at 0.091 mole fraction, average
[6] = individual technical replicate, read-out: sPLA2 % inhibition at 0.091 mole fraction
[7] = % of the compound remaining after 25 h (¤)
[8] = 0.2 µM, individual biological replicate
[9] = 1 µM, individual biological replicate
[10] = 5 µM, individual biological replicate
[11] = SW982, 1 µM, individual biological replicate, read-out: % inhibition of stimulated AA release
[12] = individual biological replicate
[13] = SW982, 4 h, 1 µM inhibitor, IL-1β 4 h, mean ± stdev, read-out: AA release % Inhib
[14] = IL-1β 4 h, 0.2, 1 or 5 µM inhibitor, read-out: AA release EC50 µM (95% CI)
[15] = [Agonist] vs. Response (three parameters)
[16] = [Agonist] vs. Response (three parameters), read-out: EC50 best-fit value, AA release
[17] = % of the compound remaining after 20 h

inhibition at 0.091 mole fraction (recombinant human cPLA2α; [2]) [%]	cPLA2 % inhibition at 0.091 mole fraction, average (recombinant human cPLA2α) [%]	inhibition at 0.091 mole fraction (recombinant human cPLA2α; [3]) [%]	inhibition at 0.091 mole fraction (secreted GV sPLA2; [4]) [%]	inhibition at 0.091 mole fraction (secreted GV sPLA2; [5]) [%]	inhibition at 0.091 mole fraction (secreted GV sPLA2; [6]) [%]	Stability in human plasma 4 h [1] [%]	Stability in human plasma 20+ h [1, 7]	plasma stability 4h (%) [1]	plasma stability 25h (%) [1]	EC50 (SW982 synoviocytes; [14]) [µM]	IC50 (SW982 synoviocytes; [15]) [µM]	EC50 (SW982 synoviocytes; [16]) [µM]	SMILES	% inhibition of stimulated AA release (SW982 synoviocytes; [8])	% inhibition of stimulated AA release (SW982 synoviocytes; [9])	% inhibition of stimulated AA release (SW982 synoviocytes; [10])	inhibition at 1 µM (SW982 synoviocytes; [11]) [%]	inhibition at 5 µM (SW982 synoviocytes; [12]) [%]	inhibition at 1 µM (SW982 synoviocytes; [13]) [%]	cPLA2α XI(50) (recombinant human cPLA2α)	also measured
89	88.7	88.4	46	46.1	45.9	69.3	16.25¤ %	65.9% and 74% and 67.2%	16.8% and 15.7%	0.63	0.63	0.63	CCCCCCCCc1ccc(OCC(=O)c2nc(C(=O)OCC)cs2)cc1 [GK401]	23.49% and 44.31% and 23.09% and 42.93%	46.19% and 56.11% and 60.73%	83.12% and 89.8% and 99.4%	49.8	92.1	53 ± 6		
79	79.2	81	50	49.5	50.4	79.7	47.3¤ %	79.3% and 79.5% and 80.3%	47% and 46% and 48.8%	6.7	6.7	6.7	CCCCCCCCc1ccc(OC(C)C(=O)c2nc(C(=O)OC)cs2)cc1 (centres unmarked) [GK402]	6.56% and 7.69% and 18.19%	17.63% and 31.62%	31.01% and 44.57%	18.5	36.7	23 ± 8		
95	95.4	95.1	32		27.6	21.5		32.3% and 10.6%		0.79	0.793	0.793	COC(=O)c1csc(C(=O)COc2ccc(Oc3ccccc3)cc2)n1 [GK403]	11.19% and -0.79% and 22.56% and 22.92%	71.06% and 44.35% and 48.83% and 61.77%	83.19% and 96.79% and 91.92%		101	57 ± 12	0.0014 mole fraction and 0.0014 ± 0.0001 mole fraction	
50		54	29	29.2	33.4	82		82.6% and 81.4%		0.5	0.495	0.495	CCCCCCOc1ccc(SCC(=O)c2nc(C(=O)OC)cs2)cc1 [GK419]	23.74% and 36.06% and 29.89% and 8.79%	51.4% and 93.19% and 85.38% and 54.33%	98.65% and 99.61% and 98.35% and 63.6%			71 ± 21		Stability in human plasma 20+ h [1, 17]: 52.7%; plasma stability 20h (%) [1]: 53.1% and 52.3%
						60.6		58.2% and 63% and 60.5%	10.5% and 10.6%	0.38	0.385	0.385	CCCCCCCCc1ccc(OCC(=O)c2nc(C(=O)OC)cs2)cc1 [GK470]	11.2% and 24.55% and 57.46% and 50.18%	71.51% and 64.93% and 67.46%	105% and 107.21% and 94.17%	62.7	110	67 ± 4		

SMILES	inhibition at 0.091 mole fraction (recombinant human cPLA2α; [2]) [%]	cPLA2 % inhibition at 0.091 mole fraction, average (recombinant human cPLA2α) [%]	inhibition at 0.091 mole fraction (recombinant human cPLA2α; [3]) [%]	inhibition at 0.091 mole fraction (secreted GV sPLA2; [4]) [%]	inhibition at 0.091 mole fraction (secreted GV sPLA2; [5]) [%]	inhibition at 0.091 mole fraction (secreted GV sPLA2; [6]) [%]	Stability in human plasma 4 h [1] [%]	Stability in human plasma 20+ h [1, 7]	plasma stability 4h (%) [1]	plasma stability 25h (%) [1]	EC50 (SW982 synoviocytes; [14]) [µM]	IC50 (SW982 synoviocytes; [15]) [µM]	EC50 (SW982 synoviocytes; [16]) [µM]	% inhibition of stimulated AA release (SW982 synoviocytes; [8])	% inhibition of stimulated AA release (SW982 synoviocytes; [9])	% inhibition of stimulated AA release (SW982 synoviocytes; [10])	inhibition at 1 µM (SW982 synoviocytes; [11]) [%]	inhibition at 5 µM (SW982 synoviocytes; [12]) [%]	inhibition at 1 µM (SW982 synoviocytes; [13]) [%]	cPLA2α XI(50) (recombinant human cPLA2α)	also measured
CCCCCCCOc1ccc(OCC(=O)c2nc(C(=O)OC)cs2)cc1 [GK420]	98		97.2	46	46.4	48.2	63.3		64.7% and 61.9%		0.09	0.0942	0.0943	55.97% and 44.95% and 68.85% and 89.01%	102.49% and 78.04% and 96.65% and 110.97%	103.28% and 116.15% and 112.68%		119	97 ± 14	0.0016 mole fraction and 0.0016 ± 0.0002 mole fraction	times more potent than GK470 (recombinant human cPLA2α; cPLA2α XI(50) relative to GK470): 7–11; Stability in human plasma 20+ h [1, 17]: 18.05%; plasma stability 20h (%) [1]: 19.1% and 17%
